The values below come from US10758541B2, “Formulations of milciclib and therapeutic combinations of the same for use in the treatment of cancer” (Tiziana Life Sciences PLC, priority 2017, dated 2020).

Where two headings read alike, the source gives them in different places.

The subject of experiment [1] is MHCC97H cells. The experiment is described as follows: IC50 values by cell proliferation assay (WST-1). In kind it is cell-based, human. On the procedure:
(§1) MHCC97H and MHCC97L (highly metastatic hepatocellular carcinoma cell line, derived from humans)
Cells (MHCC97H, MHCC97L, and HepG2.2.15) were cultured for 24 hours in 2% FBS and then were trypsinized, resuspended in 2% FBS and seeded in a rat collagen coated 96-well plate at a density of 10,000 cells/100 μl/well, a day before the experiment and cultured at 37° C. in 5% CO2. The cells were treated the next day with milciclib, sorafenib, regorafenib, sunitinib, and lenvatinib, individually or in combination in DMEM/F12+2% FBS+for 72 hours prior to the addition of WST-1 reagent. About 100 μL media was added to control well. […] To determine cell proliferation by the colorimetric test, 10 μL of WST-1 reagent (Sigma Aldrich, St Louis, Mo.) was added in 100 μL cell culture media and incubated for 2 hours in 5% CO2 at 37° C. At the end of incubation period, the plate was placed on a plate shaker for 1 minute and was monitored using a spectrophotometer at an optical density of 450 nm with a reference wavelength of 600 nm using Tecan F200 and iControl software. IC50 values were determined using GraphPad Prism (GraphPad Software, La Jolla, Calif.). Each experiment was performed in duplicate and repeated 2 times.

Experiment [2] has as its system MHCC97L cells. As to the kind of experiment: IC50 values by cell proliferation assay (WST-1). The experiment is classed as cell-based. Conditions: Homo sapiens, individual inhibitor, 72 hours.
Source text: (§2) See Shailubhai, K et al. “Atiprimod is an inhibitor of cancer cell proliferation and angiogenesis.” J Exp Ther Oncol. 2004; 4: 267-279; and Choudhari et al. “Deactivation of Akt and STAT3 signaling promotes apoptosis, inhibits proliferation, and enhances the sensitivity of hepatocellular carcinoma cells to an anticancer agent, atiprimod” Molecular Cancer Therapeutics. 2007; 6: 112-121. References are incorporated herein in their entireties.
as §1
(§3) Cells (MHCC97H, MHCC97L, and HepG2.2.15) were cultured for 24 hours in 2% FBS and then were trypsinized, resuspended in 2% FBS and seeded in a rat collagen coated 96-well plate at a density of 10,000 cells/100 μl/well, a day before the experiment and cultured at 37° C. in 5% CO2. The cells were treated the next day with milciclib, sorafenib, regorafenib, sunitinib, and lenvatinib, individually or in combination in DMEM/F12+2% FBS+for 72 hours prior to the addition of WST-1 reagent. About 100 μL media was added to control well. After cells had been cultured for 72 hours with different drug concentrations, cells were washed 3 times with sterile 1× Phosphate buffered saline (PBS). To determine cell proliferation by the colorimetric test, 10 μL of WST-1 reagent (Sigma Aldrich, St Louis, Mo.) was added in 100 μL cell culture media and incubated for 2 hours in 5% CO2 at 37° C. At the end of incubation period, the plate was placed on a plate shaker for 1 minute and was monitored using a spectrophotometer at an optical density of 450 nm with a reference wavelength of 600 nm using Tecan F200 and iControl software. IC50 values were determined using GraphPad Prism (GraphPad Software, La Jolla, Calif.). Each experiment was performed in duplicate and repeated 2 times.

Another experiment concerns HepG2.2.15 cells. As to the kind of experiment: IC50 values by cell proliferation assay (WST-1). The experiment is classed as cell-based. The following applies: Homo sapiens, read-out: HepG2.2.15 IC50.
Source text: as §2
HepG2.2.15 cells are derived from the human hepatoblastoma cell line HepG2.
as §3

Experiment [3] relates to MHCC97H cells. The experiment is described as follows: EMT transwell invasion assay. The following applies: in combination with milciclib, vs individual treatment, P<0.005. The experiment is classed as cell-based, human. As to the method: (§4) EMT (Epithelial to Mesenchymal Transition) induction employing kit from R&D systems (Cat # CCM017)
(§5) For transwell invasion assay HCC cells were seeded in the top chamber in 6 well transwell plates (Sigma-Aldrich, St. Louis, Mo.) at a density of 100,000 cells/500 μL/well in standard culture media containing 100× StemXVivo® EMT Inducing Media Supplement (R&D systems, Minneapolis, Minn.) and was incubated overnight at 37° C. in humidified CO2 incubator. Next day, EMT inducing media with or without the test articles was added and incubation was continued for 10 days with media changes every 3 days. On the 10th day, the number of cells migrated to the lower chamber was determined using Bio-Rad (Hercules, Calif.) automatic cell counter. Values obtained were expressed as a percentage of invasion and the cell counts of control cells were considered 100%.
(§6) The invasive potential of cancer cells is dependent on losing epithelial characteristics and acquiring a migratory mesenchymal property referred to as Epithelial to Mesenchymal Transition (EMT).

Experiment [4] relates to MHCC97L cells. As to the kind of experiment: EMT transwell invasion assay. The experiment is classed as cell-based, human. Conditions: in combination with milciclib, vs individual treatment, P<0.005. On the procedure: as §4, §5, §6
Experiment [5] deals with MHCC97H human liver cells. As to the kind of experiment: Orthotopic tumor induction in athymic nude mice. The following applies: oral, once daily day 12 to 47; milciclib 30 mg/kg/day, sorafenib 20 mg/kg/day; vs vehicle. The experiment is classed as in vivo. As to the method:
Mouse experiments were performed in accordance with the guidelines approved by the Institutional Animal Care and use committee of Washington Biotechnology Inc (Baltimore, Md.) where the studies were conducted. (FIG. 66) Test agents were dissolved in chremophor/ethanol (1:1) to make a 5× stock solution and diluted in water when used. MHCC97H human liver cells (5×106) in PBS were mixed with 20% Matrigel and then inoculated orthotopically into the right flank of female Balb/c nude mice. Seven days after cell inoculation, the mice were randomly allocated to either the treatment group (n=12) or the control group (n=12) based on the levels of AFP. The daily animal inspection was conducted for general appearance and tumor growth. Milciclib (30 mg/Kg), sorafenib (20 mg/Kg), milciclib+sorafenib or the corresponding vehicle was given orally to individual mice once daily from day 12 until day 47. After completion of the treatment at day 48, animals were euthanized and blood, liver tissues and tumor were collected for gene expression and mechanistic assays. Liver tumors developed 100% of animals challenged with orthotopic MHCC97H injection.

A further experiment deals with alpha-fetoprotein (AFP). As to the kind of experiment: Serum AFP in orthotopic HCC mouse model. In kind it is in vivo, mice. The following applies: milciclib 30 mg/kg, sorafenib 20 mg/kg, oral, vs vehicle. As to the method:
MHCC97H cells were seeded at a density of 500,000 cells/2 mL/well on a 6 well culture plate and incubated overnight at 37° C. in a humidified CO2 incubator. Cells were then treated with 1.3 μM milciclib or vehicle in DMEM/F12+2% FBS for 72 hours. Subsequently, cells were lysed in RIPA buffer, the supernatant was collected and used to perform ELISA assay as per the manufacturer's instructions. In orthotopic HCC mouse model, levels of serum marker alpha-fetoprotein (AFP) were determined on day 0, 6, 12, 18, 24, 30, 36, 42 and 48 using High Range AFP kit as per manufacturer's instructions.
Mouse experiments were performed in accordance with the guidelines approved by the Institutional Animal Care and use committee of Washington Biotechnology Inc (Baltimore, Md.) where the studies were conducted. (FIG. 66) Test agents were dissolved in chremophor/ethanol (1:1) to make a 5× stock solution and diluted in water when used. MHCC97H human liver cells (5×106) in PBS were mixed with 20% Matrigel and then inoculated orthotopically into the right flank of female Balb/c nude mice. Seven days after cell inoculation, the mice were randomly allocated to either the treatment group (n=12) or the control group (n=12) based on the levels of AFP. The daily animal inspection was conducted for general appearance and tumor growth. […]

In a further experiment the test system is miR-221 and miR-222. As to the kind of experiment: miRNA isolation and expression analysis of tumor tissues. The following applies: tumor tissues from orally treated mice, vs vehicle. In kind it is in vivo. As to the method:
miRNA from athymic nude mice following treatment with vehicle, milciclib, sorafenib, or milciclib+sorafenib was isolated from Total RNA using the TaqMan Advanced miRNA cDNA Synthesis Kit (Thermo Fisher Scientific, Rockford, Ill.) according to the manufacturer's instructions. miRNA-221 and miR-222 quantifications were performed in duplicates using TaqMan Advanced miRNA Assay (Thermo Fisher Scientific, Rockford, Ill.) with a sample dilution of 1:10. The PCR mixture was incubated at 95° C. for 20 seconds, followed by 40 cycles of 95° C. for 3 seconds and 60° C. for 30 seconds. Results were normalized to hsa-miR-192-5p as reference miRNA and the relative gene expression calculated as 2−ΔCT was expressed as fold increase over control samples.
Tumor tissues from mice treated with vehicle, sorafenib, milciclib, milciclib+sorafenib and normal liver tissues from naïve untreated mice were collected and levels of miR-221 and miR-222 were determined. The levels of both of miR-221 and miR-222 were elevated in tumors from vehicle treated mice.

The mark [6] stands for this setting: Homo sapiens, MHCC97H, individual inhibitor, 72 hours, WST-1, read-out: MHCC97H IC50.
Setting [7] is: MHCC97H cells, in combination with fixed 1.3 μM milciclib, read-out: IC50 (μM) KINASE INHIBITORS + 1.3 μM MILCICLIB
[8] abbreviates: Homo sapiens, MHCC97H, 72 h, MHCC97H cells, inhibitor alone (synergy studies), read-out: IC50 (μM) OF KINASE INHIBITORS
Where [9] appears, read: HepG2.2.15, individual inhibitor, 72 hours, WST-1.
Setting [10] is: Homo sapiens, MHCC97H cells, in combination with fixed 1.3 μM milciclib, read-out: IC50 (μM) KINASE INHIBITORS + 1.3 μM MILCICLIB
Where [11] appears, read: Homo sapiens, MHCC97H cells, inhibitor alone (synergy studies), read-out: IC50 (μM) OF KINASE INHIBITORS

As for `CC(=O)c1c(C)c2cnc(Nc3ccc(N4CCNCC4)cn3)nc2n(C2CCCC2)c1=O` [PALBOCICLIB, palbociclib], the IC50 in the experiment on MHCC97H cells [1] (Homo sapiens, 72 h, MHCC97H cells, inhibitor alone (synergy studies), read-out: IC50 (μM) OF KINASE INHIBITORS) was found to be 14.5 µM; in the experiment on MHCC97H cells [1] (setting [6]), 14.5 µM; with MHCC97H cells [1] (setting [7]), 6.7 µM; in the experiment with MHCC97L cells [2], 8.2 µM; in the experiment with HepG2.2.15 cells (HepG2.2.15, 72 h), 11.1 µM.
On to `CCN(CC)CCNC(=O)c1c(C)[nH]c(/C=C2\C(=O)Nc3ccc(F)cc32)c1C` [SUNITINIB, sunitinib], for which the IC50 is 30.4 µM in the experiment on MHCC97H cells [1] (setting [8]); 30.5 µM with MHCC97H cells [1] (Homo sapiens, MHCC97H, 72 h, individual inhibitor, 72 hours, WST-1, read-out: MHCC97H IC50); 17.2 µM in the experiment on MHCC97H cells [1] (setting [7]); 8.2 µM in the experiment with MHCC97L cells [2]; 25.4 µM in the experiment on HepG2.2.15 cells (setting [9]).
Regarding `COc1cc2nccc(Oc3ccc(NC(=O)NC4CC4)c(Cl)c3)c2cc1C(N)=O` [LENVATINIB, lenvatinib], the IC50 with MHCC97H cells [1] (setting [6]) came out at 0.28 µM; in the experiment with MHCC97H cells [1] (setting [10]) it was 0.12 µM; in the experiment on MHCC97H cells [1] (setting [11]), 0.28 µM; in the experiment with MHCC97L cells [2], 0.14 µM; with HepG2.2.15 cells (HepG2.2.15, 72 h), 0.24 µM. The invasion potential entry in the experiment with MHCC97H cells [3] and with MHCC97L cells [4] was “reduced the invasion potential to a greater extent” throughout.
Consider `CNC(=O)c1cc(Oc2ccc(NC(=O)Nc3ccc(Cl)c(C(F)(F)F)c3)cc2)ccn1` [SORAFENIB, sorafenib], for which the IC50 in the experiment on MHCC97H cells [1] (setting [8]) amounted to 12 µM; in the experiment on MHCC97H cells [1] (Homo sapiens, MHCC97H, MHCC97H cells, in combination with fixed 1.3 μM milciclib, read-out: IC50 (μM) KINASE INHIBITORS + 1.3 μM MILCICLIB), 6.7 µM; in the experiment with MHCC97H cells [1] (Homo sapiens, MHCC97H, MHCC97H cells, inhibitor alone (synergy studies), read-out: IC50 (μM) OF KINASE INHIBITORS) it was 12 µM; in the experiment with MHCC97H cells [1] (setting [6]), 12 µM; in the experiment with MHCC97L cells [2], 8.8 µM; in the experiment with HepG2.2.15 cells (setting [9]), 6.48 µM. In addition, the invasion potential result in the experiment on MHCC97H cells [3] and in the experiment on MHCC97L cells [4] was “reduced the invasion potential to a greater extent” throughout. In experiment [5], this compound gave a reducing tumor growth of 21%. Besides, in the experiment with alpha-fetoprotein (AFP), the “serum AFP levels” value is “Significantly lower”. Moreover, the “expression of miR-221 and miR-222” value in the experiment on miR-221 and miR-222 is listed as “modestly reduced”.
Consider `CNC(=O)c1cc(Oc2ccc(NC(=O)Nc3ccc(Cl)c(C(F)(F)F)c3)c(F)c2)ccn1` [REGORAFENIB, regorafenib], for which the IC50 with MHCC97H cells [1] (setting [6]) is 4.7 µM; in the experiment on MHCC97H cells [1] (setting [10]), 1.9 µM; with MHCC97H cells [1] (setting [11]), 4.7 µM; in the experiment with MHCC97L cells [2], 3.5 µM; in the experiment with HepG2.2.15 cells (setting [9]), 3.94 µM. For the same compound, the invasion potential result in the experiment on MHCC97H cells [3] and in the experiment with MHCC97L cells [4] was “reduced the invasion potential to a greater extent” throughout.
